# Article PMC4514850, “A Novel TGR5 Activator WB403 Promotes GLP-1 Secretion and Preserves Pancreatic β-Cells in Type 2 Diabetic Mice” (PLoS ONE, 2015)
# pEC50: −log10 of the molar value.
# Legend:
# HFD/STZ mice = assay: 8-week treatment of HFD/STZ mice; assay type: in vivo
# Method: For generation of nongenetic mice model of type 2 diabetes, ICR mice were fed with high fat diet (HFD, with 60% fat, Research Diets) for three weeks, then fasted for 5 h before receiving a single dose of streptozotocin (STZ, Sigma) intraperitoneally (ip) at 80 mg/kg to induce partial insulin deficiency. […] Diabetes was assessed using conventional criteria. Mice with similar degree of hyperglycemia and body weight were randomized into various groups in order to get a similar average PBG in each group.
# Diabetic mice in group of four were treated by gavage with vehicle (0.5% carboxymethylcellulose, CMC, Sigma), WB403 50, 100 mg/kg or sitagliptin at 100 mg/kg daily for 4 weeks in db/db mice (n = 5 with chow diet), and 8 weeks in HFD/STZ mice (n = 8 with HFD, additional normal mice group with chow diet). During the entire dosing period, body weight, food intake and water intake were monitored three times per week, while FBG and PBG were measured weekly. Overnight fasted mice received an oral glucose challenge at 2 g/kg and postprandial 2 h blood glucose was measured. Animals were treated and assessed in the order of the vehicle, WB403 50, 100 mg/kg and sitagliptin 100 mg/kg group.
# Fig 4 WB403 improved hyperglycemia of HFD/STZ mice. Mice were treated with different concentration of WB403, vehicle or sitagliptin. FBG (A) and PBG (B) were measured every week during the 8-week treatment period. (C, D) HbA1c levels in serum. Values are mean ± SEM (n = 8). *p<0.05, **p<0.01, ***p<0.001 vs. vehicle group.
# hTGR5 = target: T1, hTGR5 (Homo sapiens, UniProt Q8TDU6); assay: human TGR5 CRE-luciferase assay in co-transfected 293T cells; assay type: cell-based
# T1 construct: expressed in transfected cells; host or cells: 293T cells, transient transfection with pTGR5 (gift from Prof. Johan Auwerx)
# T1 sequence (Q8TDU6 1-330): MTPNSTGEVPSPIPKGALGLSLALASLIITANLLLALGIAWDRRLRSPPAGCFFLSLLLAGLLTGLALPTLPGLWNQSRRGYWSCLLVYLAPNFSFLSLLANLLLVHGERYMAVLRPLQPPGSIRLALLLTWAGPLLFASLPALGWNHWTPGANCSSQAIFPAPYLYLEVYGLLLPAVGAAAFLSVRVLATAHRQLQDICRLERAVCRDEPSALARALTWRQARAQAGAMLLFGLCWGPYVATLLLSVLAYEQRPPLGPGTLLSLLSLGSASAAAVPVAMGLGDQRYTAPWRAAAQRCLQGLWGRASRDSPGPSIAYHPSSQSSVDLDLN
# Method: For human TGR5 luciferase (luc) assay, 293T cells were co-transfected with pCRE-luc, pTGR5 (kind gift from Prof. Johan Auwerx, Ecole Polytechnique Fédérale de Lausanne, Lausanne, Switzerland) and pRenilla (Promega, USA). WB403 was added 5 h later. Cells were harvested after 16 h and subjected to luciferase analysis on Lumistar Optima chemiluminescent detector (BMG labtech, Germany). For cAMP testing, 293T cells transiently transfected with pTGR5 or pGPR119 (GeneCopoeia, USA) were washed by FBS-free DMEM, and stimulated with WB403 in FBS-free DMEM containing 3-isobutyl-1-methyl-xanthine (IBMX, Sigma). Cell lysates were collected 30 min later and used for cAMP ELISA assay. FLIPR Calcium 5 assay kit (Molecular Devices, USA) was used for calcium mobilization assay. 293-GPR40 stable cells (kindly provided by Prof. Naiming Zhou of Zhejiang University, Hanzhou, China) or 293 cells transient transfected with GPR120 were seeded at 50,000 cells per well in black-walled clear-bottomed 96-well plates (Costar). An equal volume of loading buffer containing Fluo 4-AM was added the following day and cells were incubated for 1 h before stimulated with compounds. Increase of the intracellular Ca^2+ concentration was monitored by Flexstation 3 system (Molecular Devices, USA).
# Fig 1 WB403 activated TGR5 and promoted active GLP-1 secretion. (A) WB403 stimulated hTGR5 in CRE-luciferase report system at the concentration range of 1–20 μmol/l. (B) WB403 stimulated hTGR5 specific cAMP accumulation at the concentration range of 1–50 μmol/l. n = 3. **p<0.01, ***p<0.001 vs. DMSO (+TGR5) group. (C) The hTGR5 targeted CRE-luciferase activity of WB403 and ZY403. […] (D) Effect of WB403 and ZY403 on gallbladders of mice. Normal mice were fasted overnight and treated with compounds (200 mg/kg) or vehicle (DMSO) by ip injection. Gallbladders (GB) were removed 30 min later and volumes measured then normalized to body weight (B.W.). n = 10. **p<0.01 vs. vehicle group. (E) Structure of WB403 and ZY403. WB403 promoted GLP-1 secretion in NCI-H716 cells (F), primary enterocytes (G), and MIN6 cells (H). n = 3. *p<0.05, **p<0.01, ***p<0.001 vs. vehicle group. (I) WB403 promoted GLP-1 in ICR mice. n = 5. **p<0.01 vs. vehicle group. Values represent mean ± SEM.
# ICR mice = assay: GLP-1 secretion in vivo in ICR mice; conditions: oral 50, 100 mg/kg with DPP-4 inhibitor 5 mg/kg; blood 10 min after 2 g/kg glucose; n = 5
# Method: (§1) Endocrine differentiation was induced by seeding NCI-H716 cells in plates coated with Matrigel (Becton Dickinson). Cells were washed with RPMI-1640 medium without FBS and incubated in the same medium containing indicated compounds at 10 μmol/l. The condition medium was collected after 30 min. GLP-1 secretion in MIN6 or primary enterocytes was conducted similarly. To isolate primary enterocytes, ileum or colon was cut into 2 cm length, rinsed by PBS (pH7.2∼7.4) before dispersed in 10 mmol/l EDTA/PBS (pH7.4) for 15 min at room temperature, followed by pipetting up and down. Enterocytes were collected by filtration through a 70 μm cell strainer. To study the effect of WB403 on GLP-1 secretion in vivo, mice in group of three were fasted overnight and orally received 0, 50, 100 mg/kg of WB403 dispersed in 0.5% CMC with a DPP-4 inhibitor (5 mg/kg). There were 5 animals in each group. 2 g/kg glucose was administrated 30 min later and blood was collected 10 min after glucose challenge.
# (§2) The GLP-1 (active) ELISA kit was purchased from Millipore, and insulin ELISA kit was from Mercodia. For quantitative determination of cAMP, a competitive enzyme immunoassay kit from R&D system was used. All immunoassays were performed according to manufacturers’ instructions.
# MIN6 cells = assay: active GLP-1 secretion in MIN6 cells; assay type: cell-based, mouse; conditions: Fig 1H
# Method: as §1, §2
# [1] = HFD/STZ mice, 50, 100 mg/kg daily, from first week through 8-week treatment
smiles,measurement,setting,value
"CCc1cc(-c2nc(C)c(COCc3ccc(Br)cc3)s2)ccn1 [WB403, 4-(5-((4-bromobenzyloxy)-methyl)-4-methylthiazol-2-yl)-2-ethylpyridine]",serum HbA1c levels vs vehicle,"HFD/STZ mice; HFD/STZ mice, 8-week treatment",decreased significantly
same,FBG vs vehicle,HFD/STZ mice; [1],significantly decreased
same,PBG vs vehicle,HFD/STZ mice; [1],significantly decreased
same,stimulation of luciferase reaction through TGR5,"hTGR5; 1–20 μmol/l, Fig 1A",dose-dependently stimulate
same,pEC50,"hTGR5; CRE-luciferase, 293T cells, read-out: TGR5 EC50",5.26
same,luciferase activity in control 293T cells,hTGR5; control 293T cells transfected with an empty plasmid,no stimulation
same,TGR5 luciferase activity in primary screen (fold increase compared to DMSO control),"hTGR5; screen of 100 compounds, S1 Fig",relatively lower luciferase activity
same,GLP-1 concentration in serum,ICR mice,significantly increased
same,GLP-1 stimulation in MIN6 cells,MIN6 cells,GLP-1 stimulation effect of WB403 was confirmed
